Assay results reported in the supplement of paper PMC10307832.

How the values were obtained:
Assay in all cases: relative viability (nuclei count vs DMSO), 5 days (fraction); higher = more cells survive
NCI-H2228 = tested on: NCI-H2228
Procedure, shortened: (§1)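 Each reported value is a median over duplicate plates. It expresses relative viability: treated-well nuclei count divided by vehicle-well nuclei count. Lung cancer cell lines in 1536-well plates were dosed by pin tool a day after seeding, alone with one drug or with a fixed anchor-drug dose plus five library-drug doses (not always all listed) in √10 steps, and nuclei were counted after 5 days.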

NCI-H1944 = tested on: NCI-H1944
Procedure, shortened: as §1

HCC-366 = tested on: HCC-366
Procedure, shortened: as §1

NCI-H2405 = tested on: NCI-H2405
Procedure, shortened: as §1

NCI-H1793 = tested on: NCI-H1793
Procedure, shortened: as §1

NCI-H1755 = tested on: NCI-H1755
Procedure, shortened: as §1

NCI-H460 = tested on: NCI-H460
Procedure, shortened: as §1

NCI-H3122 = tested on: NCI-H3122
Procedure, shortened: as §1

LU99A = tested on: LU99A
Procedure, shortened: as §1

NCI-H1395 = tested on: NCI-H1395
Procedure, shortened: as §1

LOU-NH91 = tested on: LOU-NH91
Procedure, shortened: as §1

UMC-11 = tested on: UMC-11
Procedure, shortened: as §1

NCI-H2087 = tested on: NCI-H2087
Procedure, shortened: as §1

NCI-H1651 = tested on: NCI-H1651
Procedure, shortened: as §1

ABC-1 = tested on: ABC-1
Procedure, shortened: as §1

CAL-12T = tested on: CAL-12T
Procedure, shortened: as §1

NCI-H2170 = tested on: NCI-H2170
Procedure, shortened: as §1

HCC-78 = tested on: HCC-78
Procedure, shortened: as §1

ChaGo-K-1 = tested on: ChaGo-K-1
Procedure, shortened: as §1

RERF-LC-KJ = tested on: RERF-LC-KJ
Procedure, shortened: as §1

PC-3 [JPC-3] = tested on: PC-3 [JPC-3]
Procedure, shortened: as §1

LC-2-ad = tested on: LC-2-ad
Procedure, shortened: as §1

O=c1cc(N2CCOCC2)oc2c(-c3cccc4c3sc3ccccc34)cccc12 + CS(=O)(=O)N1CCN(Cc2cc3nc(-c4cccc5[nH]ncc45)nc(N4CCOCC4)c3s2)CC1 [Pictilisib] (partner 1 µM)
relative viability (NCI-H2228; first compound 0.03162 µM): 0.351
relative viability (NCI-H2228; first compound 0.1 µM): 0.668
relative viability (NCI-H2228; first compound 0.3162 µM): 0.39
relative viability (NCI-H2228; first compound 1 µM): 0.512
relative viability (NCI-H1944; first compound 0.01 µM): 0.349
relative viability (NCI-H1944; first compound 0.03162 µM): 0.336
relative viability (NCI-H1944; first compound 0.1 µM): 0.349
relative viability (NCI-H1944; first compound 0.3162 µM): 0.348
relative viability (NCI-H1944; first compound 1 µM): 0.35
relative viability (HCC-366; first compound 0.01 µM): 0.197
relative viability (HCC-366; first compound 0.03162 µM): 0.154
relative viability (HCC-366; first compound 0.1 µM): 0.1
relative viability (HCC-366; first compound 0.3162 µM): 0.154
relative viability (HCC-366; first compound 1 µM): 0.137
relative viability (NCI-H2405; first compound 0.01 µM): 0.397
relative viability (NCI-H2405; first compound 0.03162 µM): 0.513
relative viability (NCI-H2405; first compound 0.1 µM): 0.443
relative viability (NCI-H2405; first compound 0.3162 µM): 0.533
relative viability (NCI-H2405; first compound 1 µM): 0.443
relative viability (NCI-H1793; first compound 0.01 µM): 0.289
relative viability (NCI-H1793; first compound 0.03162 µM): 0.348
relative viability (NCI-H1793; first compound 0.1 µM): 0.336
relative viability (NCI-H1793; first compound 0.3162 µM): 0.335
relative viability (NCI-H1793; first compound 1 µM): 0.35
relative viability (NCI-H1755; first compound 0.01 µM): 0.288
relative viability (NCI-H1755; first compound 0.03162 µM): 0.402
relative viability (NCI-H1755; first compound 0.1 µM): 0.457
relative viability (NCI-H1755; first compound 0.3162 µM): 0.458
relative viability (NCI-H1755; first compound 1 µM): 0.395
relative viability (NCI-H460; first compound 0.01 µM): 0.403
relative viability (NCI-H460; first compound 0.03162 µM): 0.342
relative viability (NCI-H460; first compound 0.1 µM): 0.394
relative viability (NCI-H460; first compound 0.3162 µM): 0.384
relative viability (NCI-H460; first compound 1 µM): 0.319
relative viability (NCI-H3122; first compound 0.01 µM): 0.623
relative viability (NCI-H3122; first compound 0.03162 µM): 0.553
relative viability (NCI-H3122; first compound 0.1 µM): 0.651
relative viability (NCI-H3122; first compound 0.3162 µM): 0.552
relative viability (NCI-H3122; first compound 1 µM): 0.57
relative viability (LU99A; first compound 0.01 µM): 0.384
relative viability (LU99A; first compound 0.03162 µM): 0.3
relative viability (LU99A; first compound 0.1 µM): 0.333
relative viability (LU99A; first compound 0.3162 µM): 0.367
relative viability (LU99A; first compound 1 µM): 0.343
relative viability (NCI-H1395; first compound 0.01 µM): 0.587
relative viability (NCI-H1395; first compound 0.03162 µM): 0.653
relative viability (NCI-H1395; first compound 0.1 µM): 0.484
relative viability (NCI-H1395; first compound 0.3162 µM): 0.623
relative viability (NCI-H1395; first compound 1 µM): 0.627
relative viability (LOU-NH91; first compound 0.01 µM): 0.476
relative viability (LOU-NH91; first compound 0.03162 µM): 0.533
relative viability (LOU-NH91; first compound 0.1 µM): 0.525
relative viability (LOU-NH91; first compound 0.3162 µM): 0.514
relative viability (LOU-NH91; first compound 1 µM): 0.531
relative viability (UMC-11; first compound 0.01 µM): 0.812
relative viability (UMC-11; first compound 0.03162 µM): 0.825
relative viability (UMC-11; first compound 0.1 µM): 0.773
relative viability (UMC-11; first compound 0.3162 µM): 0.819
relative viability (UMC-11; first compound 1 µM): 0.796
relative viability (NCI-H2087; first compound 0.01 µM): 0.745
relative viability (NCI-H2087; first compound 0.03162 µM): 0.861
relative viability (NCI-H2087; first compound 0.1 µM): 0.851
relative viability (NCI-H2087; first compound 0.3162 µM): 0.783
relative viability (NCI-H2087; first compound 1 µM): 1
relative viability (NCI-H1651; first compound 0.01 µM): 0.451
relative viability (NCI-H1651; first compound 0.03162 µM): 0.642
relative viability (NCI-H1651; first compound 0.1 µM): 0.636
relative viability (NCI-H1651; first compound 0.3162 µM): 0.615
relative viability (NCI-H1651; first compound 1 µM): 0.56
relative viability (ABC-1; first compound 0.01 µM): 0.698
relative viability (ABC-1; first compound 0.03162 µM): 0.834
relative viability (ABC-1; first compound 0.1 µM): 0.745
relative viability (ABC-1; first compound 0.3162 µM): 0.888
relative viability (ABC-1; first compound 1 µM): 0.755
relative viability (CAL-12T; first compound 0.01 µM): 0.368
relative viability (CAL-12T; first compound 0.1 µM): 0.485
relative viability (CAL-12T; first compound 0.3162 µM): 0.551
relative viability (CAL-12T; first compound 1 µM): 0.326
relative viability (NCI-H2170; first compound 0.01 µM): 0.299
relative viability (NCI-H2170; first compound 0.03162 µM): 0.331
relative viability (NCI-H2170; first compound 0.1 µM): 0.369
relative viability (NCI-H2170; first compound 0.3162 µM): 0.375
relative viability (NCI-H2170; first compound 1 µM): 0.344
relative viability (HCC-78; first compound 0.01 µM): 0.209
relative viability (HCC-78; first compound 0.03162 µM): 0.204
relative viability (HCC-78; first compound 0.1 µM): 0.178
relative viability (HCC-78; first compound 0.3162 µM): 0.242
relative viability (HCC-78; first compound 1 µM): 0.191
relative viability (ChaGo-K-1; first compound 0.01 µM): 0.648
relative viability (ChaGo-K-1; first compound 0.03162 µM): 0.791
relative viability (ChaGo-K-1; first compound 0.1 µM): 0.448
relative viability (ChaGo-K-1; first compound 0.3162 µM): 0.901
relative viability (ChaGo-K-1; first compound 1 µM): 0.663
relative viability (RERF-LC-KJ; first compound 0.01 µM): 0.509
relative viability (RERF-LC-KJ; first compound 0.03162 µM): 0.507
relative viability (RERF-LC-KJ; first compound 0.1 µM): 0.595
relative viability (RERF-LC-KJ; first compound 0.3162 µM): 0.664
relative viability (RERF-LC-KJ; first compound 1 µM): 0.514
relative viability (PC-3 [JPC-3]; first compound 0.01 µM): 0.751
relative viability (PC-3 [JPC-3]; first compound 0.03162 µM): 0.747
relative viability (PC-3 [JPC-3]; first compound 0.1 µM): 0.711
relative viability (PC-3 [JPC-3]; first compound 0.3162 µM): 0.727
relative viability (PC-3 [JPC-3]; first compound 1 µM): 0.739
relative viability (LC-2-ad; first compound 0.01 µM): 0.39
relative viability (LC-2-ad; first compound 0.1 µM): 0.578
relative viability (LC-2-ad; first compound 0.3162 µM): 0.456
relative viability (LC-2-ad; first compound 1 µM): 0.526
